Source: patent publication US4859782A (priority 1987, dated 1989)
Values after ≈ are worked out from the molar mass of the structure shown. Read-outs that look alike come from different tables or passages of the source.

Legend:
CV-1 cells = settings: for VSV cyt (cytotoxicity): VSV-infected CV-1 cells
[1] = system: vesicular stomatitis virus (VSV); type: cell-based; settings: CV-1 cells, 8 μg/well
[2] = system: herpes simplex type 1 (HSV-1); type: cell-based
Saccharomyces cerevisiae = test: microbe, parasite or virus in culture; settings: read-out: Antifungal activity, […]
Candida albicans [3] = test: microbe, parasite or virus in culture; settings: read-out: Antifungal activity, […]
Penicillium atrovenetum = test: microbe, parasite or virus in culture; type: cell-based; settings: read-out: Antifungal activity, Pa: diameter of the zone of growth inhibition
Candida albicans [4] = test: microbe, parasite or virus in culture; settings: read-out: Ca MIC

COC1CC(C)OC(CCC(C)C(O)C(C)C2OC(=O)C(C)=CCC(O)CC3C=CCC(CC(OC)C(C)C(O)CC(O)C(C)C(C(C)C(O)C(C)CCC4CC(OC)CC(C)O4)OC(=O)C(C)=CCC(O)CC4C=CCC(CC(OC)C(C)C(O)CC(O)C2C)O4)O3)C1 (stereo not drawn) [misakinolide, Misakinolide]
HSV-1 cyt (cytotoxicity) (CV-1 cells): 0
VSV cyt (cytotoxicity) (CV-1 cells; 4 μg/well): 0
VSV cyt (cytotoxicity) (CV-1 cells; 8 μg/well): 0
VSV av (antiviral activity) [1]: +
HSV-1 av (antiviral activity) [2]: ++ and +
zone of inhibition at 5 µg/disc (Saccharomyces cerevisiae): 12 mm
zone of inhibition at 5 µg/disc (Candida albicans [3]): 10 mm
zone of inhibition at 5 µg/disc (Penicillium atrovenetum): 10 mm
MIC (Candida albicans [4]): 5 µg/mL (≈ 3.74 µM)
